row,SMILES,melting point
1,"CCCCCCCN(CCN1CCN(CCSc2nc3c(C)c(Cl)cc(C(C)C)c3o2)CC1)C(=O)Nc1c(C(C)C)cc(O)cc1C(C)C [Example 116, N-[2-[4-[2-(5-chloro-7-isopropyl-4-methylbenzoxazol-2-ylthio)ethyl]piperazin-1-yl]ethyl]-N′-(2,6-diisopropyl-4-hydroxyphenyl)-N-heptylurea]",138 to 140 °C
2,CSc1nc(C)ccc1NC(=O)CN1CCN(CCSc2nc3ccccc3o2)CC1.Cl.Cl,200 to 203 °C
3,"CCOCCOc1ccc(C(C)C)c(NC(=O)CN2CCN(CCSc3nc4ccccc4o3)CC2)c1C(C)C [Example 65, 2-[4-[2-(benzoxazol-2-ylthio)ethyl]piperazin-1-yl]-N-[2,6-diisopropyl-3-(2-ethoxyethyloxy)phenyl)acetamide]",100 to 103 °C
4,"COc1ccc(C(C)C)c(NC(=O)CN2CCN(CCCSc3nc4c(C)c(Cl)cc(C(C)C)c4o3)CC2)c1C(C)C [Example 110, 2-[4-[3-(5-chloro-7-isopropyl-4-methylbenzoxazol-2-ylthio)propyl]piperazin-1-yl]-N-(2,6-diisopropyl-3-methoxyphenyl)acetamide]",126 to 127 °C
5,"CSc1ncnc(SC)c1NC(=O)CN1CCN(CCSc2nc3ccccc3o2)CC1 [Example 46, 2-[4-[2-(benzoxazol-2-ylthio)ethyl]piperazin-1-yl]-N-[4,6-bis(methylthio)-5-pyrimidyl)acetamide]",171 to 172 °C
6,"CC(C)c1cc(O)cc(C(C)C)c1NC(=O)CN1CCN(CCSc2nc3ccccc3o2)CC1 [Example 72, 2-[4-[2-(benzoxazol-2-ylthio)ethyl]piperazin-1-yl]-N-(2,6-diisopropyl-4-hydroxyphenyl)acetamide]",162 to 164 °C
7,"CCSc1cc(C)nc(SCC)c1NC(=O)CN1CCN(CCSc2nc3ccc(COC)c(COC)c3o2)CC1 [Example 101, 2-[4-[2-(6,7-bis(methoxymethyl)benzoxazol-2-ylthio)ethyl]piperazin-1-yl]-N-(2,4-bis(ethylthio)-6-methyl-3-pyridyl)acetamide]",118 to 120 °C
8,Cc1cc(SC(C)C)c(NC(=O)CN2CCN(CCSc3nc4ccccc4s3)CC2)c(SC(C)C)n1.Cl.Cl,139 to 142 °C
9,"CC(C)c1cccc(C(C)C)c1NC(=O)CN1CCN(CCSc2nc3cccc([S+](C)[O-])c3o2)CC1 (centres unmarked) [Example 121, 2-[4-[2-(7-methanesulfinylbenzoxazol-2-ylthio)ethyl]piperazin-1-yl]-N-(2,6-diisopropylphenyl)acetamide]",119 to 120 °C
10,"COC(=O)c1cccc2nc(SCCN3CCN(CC(=O)Nc4c(SC(C)C)cc(C)nc4SC(C)C)CC3)oc12 [Example 39, N-[2,4-bis(isopropylthio)-6-methyl-3-pyridyl]-2-[4-[2-(7-methoxycarbonylbenzoxazol-2-ylthio)ethyl]piperazin-1-yl]acetamide]",60 to 63 °C
11,"CSc1ccc(C(C)C)c(NC(=O)CN2CCN(CCSc3nc4ccccc4o3)CC2)c1C(C)C [Example 60, 2-[4-[2-(benzoxazol-2-ylthio)ethyl]piperazin-1-yl]-N-[2,6-diisopropyl-3-(methylthio)phenyl]acetamide]",148 to 150 °C
12,"CC(=O)Oc1ccc(C(C)C)c(NC(=O)CN2CCN(CCSc3nc4ccccc4o3)CC2)c1C(C)C [Example 63, 2-[4-[2-(benzoxazol-2-ylthio)ethyl]piperazin-1-yl]-N-(2,6-diisopropyl-3-acetyloxyphenyl)acetamide]",129 to 131 °C
13,"COC(=O)c1cccc2nc(SCCCN3CCN(CC(=O)Nc4c(SC)cc(C)nc4SC)CC3)oc12 [Example 30, N-[2,4-bis(methylthio)-6-methyl-3pyridyl)-2-[4-[3-(7-methoxycarbonylbenzoxazol-2-ylthio)propyl]piperazin-1-yl]acetamide]",76 to 79 °C
14,"COc1cc(C(C)C)c(NC(=O)CN2CCN(CCSc3nc4cccc(C(F)(F)F)c4o3)CC2)c(C(C)C)c1 [Example 86, 2-[4-[2-(7-trifluoromethylbenzoxazol-2-ylthio)ethyl]piperazin-1-yl]-N-(2,6-diisopropyl-4-methoxyphenyl)acetamide]",122 to 123 °C
15,"COC(=O)c1cccc2nc(SCCN3CCN(CCNC(=O)Nc4c(C(C)C)cccc4C(C)C)CC3)oc12 [Example 82, N-[2-[4-[2-(7-methoxycarbonylbenzoxazol-2-ylthio)ethyl]piperazin-1-yl]ethyl]-N′-(2,6-diisopropylphenyl)urea]",186 to 188 °C
16,"COc1cc(C(C)C)c(NC(=O)CN2CCN(CCSc3nc4ccccc4o3)CC2)c(C(C)C)c1 [Example 75, 2-[4-[2-(benzoxazol-2-ylthio)ethyl]piperazin-1-yl]-N-(2,6-diisopropyl-4-methoxyphenyl)acetamide]",115 to 117 °C
17,"CSc1ccc(C(C)C)c(NC(=O)CN2CCN(CCCSc3nc4ccccc4o3)CC2)c1C(C)C [Example 68, 2-[4-[3-(benzoxazol-2-ylthio)propyl]piperazin-1-yl]-N-[2,6-diisopropyl-3-(methylthio)phenyl]acetamide]",126 to 127 °C
18,CC(C)c1cc(OC(=O)[C@H](C)N)cc(C(C)C)c1NC(=O)CN1CCN(CCSc2nc3cccc(C(F)(F)F)c3o2)CC1.O=C(O)C(F)(F)F.O=C(O)C(F)(F)F.O=C(O)C(F)(F)F,124 to 126 °C

row,SMILES,melting point
1,"CC(C)c1ccc([N+](=O)[O-])c(C(C)C)c1NC(=O)CN1CCN(CCCSc2nc3ccccc3o2)CC1 [Example 67, 2-[4-[3-(benzoxazol-2-ylthio)propyl]piperazin-1-yl]-N-(2,6-diisopropyl-3-nitrophenyl)acetamide]",156 to 158 °C
2,"CC(C)c1cccc(C(C)C)c1NC(=O)CN1CCN(CCOc2nc3ccccc3[nH]2)CC1 [Example 154, 2-[4-[2-(benzimidazol-2-yloxy)ethyl]piperazin-1-yl]-N-(2,6-diisopropylphenyl)acetamide]",205 to 206 °C
3,"CSc1cc(C)nc(SC)c1NC(=O)CCN1CCN(CCSc2nc3ccccc3o2)CC1 [Example 27, 3-[4-[2-(benzoxazol-2-ylthio)ethyl]piperazin-1-yl]-N-[2,4-bis(methylthio)-6-methyl-3pyridyl]propanamide]",110 to 112 °C
4,"Cc1ccc(C(C)C)c2oc(SCCN3CCN(CC(=O)Nc4c(C(C)C)cccc4C(C)C)CC3)nc12 [Example 122, 2-[4-[2-(7-isopropyl-4-methylbenzoxazol-2-ylthio)ethyl]piperazin-1-yl]-N-(2,6-diisopropylphenyl)acetamide]",133 to 134 °C
5,"CC(C)c1cc(C(C)C)c(NC(=O)CN2CCN(CCCSc3nc4ccccc4s3)CC2)c(C(C)C)c1 [Example 55, 2-[4-[3-(benzothiazol-2-ylthio)propyl]piperazin-1-yl]-N-(2,4,6-triisopropylphenyl)acetamide]",107 to 108 °C
6,CCSc1cc(C)nc(SCC)c1NC(=O)CN1CCN(CCSc2nc3ncccc3o2)CC1.O=C(O)/C=C\C(=O)O.O=C(O)/C=C\C(=O)O,148 to 149 °C
7,"CC(C)c1cc(O[C@@H]2O[C@H](CO)[C@@H](O)[C@H](O)[C@H]2O)cc(C(C)C)c1NC(=O)CN1CCN(CCSc2nc3cccc(C(F)(F)F)c3o2)CC1 [Example 134, 2-[4-[2-(7-trifluoromethylbenzoxazol-2-ylthio)ethyl]piperazin-1-yl]-N-[2,6-diisopropyl-4-(β-D-glucopyranosyl)oxyphenyl]acetamide]",130 to 133 °C
8,"CC(C)c1cc(C(C)C)c(NC(=O)CN2CCN(CCSc3nc4ccccc4[nH]3)CC2)c(C(C)C)c1 [Example 49, 2-[4-[2-(benzimidazol-2-ylthio)ethyl]piperazin-1-yl]-N-(2,4,6-triisopropylphenyl)acetamide]",217 to 218 °C
9,"CC(C)c1cccc(C(C)C)c1NC(=O)CN1CCN(CCSc2nc3cccc([N+](=O)[O-])c3o2)CC1 [Example 104, 2-[4-[2-(7-nitrobenzoxazol-2-ylthio)ethyl]-piperazin-1-yl]-N-(2,6-diisopropylphenyl)acetamide]",153 to 155 °C
10,"CC(C)c1cccc(C(C)C)c1NC(=O)NCCN1CCN(CCSc2nc3ccccc3[nH]2)CC1 [Example 80, N-[2-[4-[2-(benzimidazol-2-ylthio)ethyl]piperazin-1-yl]ethyl]-N′-(2,6-diisopropylphenyl)urea]",120 to 122 °C
11,"CSc1cc(C)nc(SC)c1NC(=O)CN1CCN(CCCSc2nc3ccccc3o2)CC1 [Example 28, 2-[4-[3-(benzoxazol-2-ylthio)propyl]piperazin-1-yl]-N-[2,4-bis(methylthio)-6-methyl-3-pyridyl]acetamide]",160 to 161 °C
12,"CC(C)c1cccc(C(C)C)c1NC(=O)CN1CCN(CCCSc2nc3ncccc3o2)CC1 [Example 12, 2-[4-[3-(oxazolo[4,5-b]pyridine-2-ylthio)propyl]piperazin-1-yl]-N-(2,6-diisopropylphenyl)acetamide]",125 to 127 °C
13,"CSc1cccc2nc(SCCN3CCN(CC(=O)Nc4c(C(C)C)cccc4C(C)C)CC3)oc12 [Example 112, 2-[4-[2-(7-methylthiobenzoxazol-2-ylthio)ethyl]piperazin-1-yl]-N-(2,6-diisopropylphenyl)acetamide]",120 to 121 °C
14,"CC(C)c1cccc(C(C)C)c1NC(=O)CN1CCN(CCSc2nc3ccccc3[nH]2)CC1 [Example 3, 2-[4-[2-(benzimidazol-2-ylthio)ethyl]-piperazin-1-yl]-N-(2,6-diisopropylphenyl)acetamide]",207 °C (dec.)
15,"COC(=O)c1cccc2nc(SCCN3CCN(CC(=O)Nc4c(C(C)C)cccc4C(C)C)CC3)oc12 [Example 4, 2-[4-[2-(7-methoxycarbonylbenzoxazol-2-ylthio)ethyl]-piperazin-1-yl]-N-(2,6diisopropylphenyl)acetamide]",159 to 161 °C
16,"COc1cc(C(C)C)c(NC(=O)CN2CCN(CCSc3nc4cccc(C(C)=O)c4o3)CC2)c(C(C)C)c1 [Example 93, 2-[4-[2-(7-acetylbenzoxazol-2-ylthio)ethyl]piperazin-1-yl]-N-(2,6-diisopropyl-4-methoxyphenyl)acetamide]",185 to 186 °C
17,CCOP(=O)(OCC)Oc1cc(C(C)C)c(NC(=O)CN2CCN(CCSc3nc4ccccc4o3)CC2)c(C(C)C)c1,108 to 109 °C
